Experimental data from ChEMBL document CHEMBL1146428, “Effects of flavonoids isolated from scutellariae radix on fibrinolytic system induced by trypsin in human umbilical vein endothelial cells” (J Nat Prod, 1997).
pIC50: −log10 of the molar value. Active and inactive are the calls of the source. The rule behind the calls is not given here.

How the values were obtained:
[1] = biological target: T1, Trypsin (Homo sapiens, UniProt P07477+P07478+P35030); assay: Inhibition of trypsin-induced elevation in PAI1 production in HUVEC by ELISA; format: cell-based
[2] = biological target: T1, Trypsin; assay: Inhibition of trypsin-induced reduction in tPA production in HUVEC by ELISA; format: cell-based
[3] = Inhibition of trypsin by protease assay system

Structure (SMILES)	IC50 [1]	Activity [2]	pIC50 [3]	Activity [1]
COc1cccc(O)c1-c1cc(=O)c2c(O)c(OC)c(OC)c(OC)c2o1 [SKULLCAPFLAVONE II]	110 µM	inactive	–	–
COc1c(O)cc2oc(-c3ccccc3)cc(=O)c2c1O [OROXYLIN A]	61 µM	inactive	–	–
COc1c(O)ccc(O)c1-c1cc(=O)c2c(O)cc(O)c(OC)c2o1	88 µM	inactive	–	–
O=c1cc(-c2ccccc2)oc2cc(O)c(O)c(O)c12 [BAICALEIN]	3.7 µM	Dose-dependent effect	6.30	Dose-dependent effect
O=C1C[C@@H](c2c(O)cccc2O)Oc2cc(O)cc(O)c21	> 1000 µM	inactive	–	–

The remaining lines, values ahead:

IC50 [1]	Activity [2]	pIC50 [3]	Activity [1]	Structure (SMILES)
> 1000 µM	inactive	–	–	O=C(O)[C@H]1O[C@@H](Oc2cc3oc(-c4ccccc4)cc(=O)c3c(O)c2O)[C@H](O)[C@@H](O)[C@@H]1O [BAICALIN]
> 1000 µM	inactive	–	–	COc1c(O[C@@H]2O[C@H](C(=O)O)[C@@H](O)[C@H](O)[C@H]2O)cc(O)c2c(=O)cc(-c3ccccc3)oc12
105 µM	inactive	–	–	COc1c(O)cc(O)c2c(=O)cc(-c3ccccc3)oc12 [WOGONIN]
